Assay results published in patent US20100173332A1, “Method for the Fluorescent Detection of Nitroreductase Activity Using Nitro-Substituted Aromatic Compounds” (Auckland Uniservices Limited, priority 2006, published 2010).
“Also recorded” adds a separate entry of the source. Structures can show the parent of a compound that is named as a salt.

Assays:
[1] = Aerobic/anaerobic stability in cell-free culture media (fluorescence); assay type: physicochemical; details: 100 μM, 37° C., 4 hr, air or 95% N2
Method: Compounds 1-15 or methyl 7-nitrocoumarin carboxylate (methyl 7-nitro-2-oxo-2H-chromene-3-carboxylate) or 7-nitrocoumarin-3-carboylic acid or 6-chloro-9-nitro-5H-benzo[a]phenoxazin-5-one were added to a final concentration of 100 μM in cell-free culture media and were held at 37° C., 5% CO2 for 4 hr under either air or 95% N2. The fluorescence signal was monitored at 355/460 except for compounds 4 and 11 that were monitored at 405/585 and compounds 8, 10 and 6-Cl-9-nitro-5-oxo-5H-benzo[a]phenoxazine that were monitored at 355/585, 355/535 and 530/585 respectively (FIG. 12).

[2] = Aqueous stability in minimal essential media in the absence of cells (background fluorescence); assay type: physicochemical; details: for increase in background florescence in culture media: 300 μM, minimal essential media, 37° C., 5% CO2, 355/460, over 7.8 hours; for aqueous stability compared with methyl-7-nitrocoumarin carboxylate and 7-nitrocoumarin-3-carboxylic acid: FIG. 11
Method: In a further experiment, the aqueous stability of compounds 1 and 2 were compared with the compounds methyl-7-nitrocoumarin carboxylate and 7-nitrocoumarin-3-carboxylic acid in the absence of cell culture. Minimal essential media was equilibrated to 37° C., 5% CO2 for 2 hr and compounds were added to a final concentration of 300 μM. […]

[3] = target: T1, E. coli nitroreductase (nfsB) (Escherichia coli, UniProt P38489); test: Entrapment of fluorescent products within nitroreductase expressing HCT116 cells; assay type: cell-based; details: washed; for cellular retention of fluorescence in nitroreductase expressing but not parental HCT116 cells: 10 μM for 1.5 hr, 6 hours post-exposure
T1 construct: expressed in transfected cells; host or cells: MDA231 (MDA-231) human breast cancer cell line, clonal derivative MDA231 NTR
Method: The human colorectal cancer cell line (HCT116^WT) and a clonal derivative (HCT116^NTR) engineered to express the reporter gene E. coli nitroreductase (nfsB) under the control of a constitutive promoter were seeded onto glass coverslips at an equal density (50:50). Cells were equilibrated to 37° C., 5% CO2, and compound 1 and 13 was added to a final concentration of 100 μM for 1 hr. Cells were washed free of compound after 1 hour and fluorescence was monitored as a function of time (FIG. 8).
In further screening (FIG. 9), the human colorectal cancer cell line (HCT116^WT) and a clonal derivative (HCT116^NTR) engineered to express the reporter gene E. coli nitroreductase (nfsB) under the control of a constitutive promoter were seeded separately into a 96-well glass plate. Cells were equilibrated to 37° C., 5% CO2, and compounds were added to a final concentration of 10 μM for 1.5 hr. Cells were washed free of compound and fluorescence was monitored 6 hours post-exposure. […] The image has been rendered monochromatic for the purposes of publication quality.

[4] = target: T2, NAD(P)H dehydrogenase quinone 1 (DT-diaphorase; NQO1) (Homo sapiens, UniProt P15559); test: Detecting human aerobic nitroreductase activity in MDA231 DTD cells; assay type: cell-based; details: for fluorescent signal in the presence of human NQO1 expression: MDA231 DTD cells, 100 μM, 4 hr (FIG. 5)
T2 construct: expressed in transfected cells; host or cells: MDA231 human breast cancer cell line, clonal derivative MDA231 DTD
Method: The human breast cancer cell line (MDA231^WT) and a clonal derivative (MDA231^DTD) engineered to express the human aerobic reductase, NAD(P)H dehydrogenase quinone 1 (DT-diaphorase; NQO1) under the control of a constitutive promoter were seeded into 96-well plates at a density of 1×10^5 cells/well. When samples were equilibrated to 37° C., 5% CO2 for 2 hr and compounds 1 to 15 were added to a final concentration of 100 μM for 4 hr. Test groups were cell-free culture media alone (control), MDA231^WT and MDA231^DTD. The fluorescence signal was monitored at 355/460 except for compounds 4 and 11 that were monitored at 405/585 and compounds 8 and 10 that were monitored at 355/585 and 355/535 respectively (FIG. 5).
In a further exemplification, the human breast cancer cell line (MDA231^WT) and a clonal derivative (MDA231^DTD) engineered to express the human NQO1 gene (DT-diaphorase) under the control of a constitutive promoter were seeded into 96-well tissue culture plates at 1×10^5 cells/well. Samples were equilibrated to 37° C., 5% CO2, compound (1) (6-nitro-4(1H)-quinolinone) was added to a final concentration of 300 μM. Test groups were culture media alone (control), MDA231^WT cells and MDA231^DTD cells. The rate of fluorescence signal generation at 355/460 was monitored as a function of time (FIG. 6).

[5] = target: T1, E. coli nitroreductase (nfsB); test: Rate of fluorescence signal generation in stirred HCT116 NTR cell suspension; assay type: cell-based; details: 300 μM, 355/460
Method: In a further exemplification, the human colorectal cancer cell line (HCT116^WT) and a clonal derivative (HCT116^NTR) engineered to express the reporter gene E. coli nitroreductase (nfsB) under the control of a constitutive promoter were suspended in stirred culture media at a density of 5×10^6 cells/ml. When samples were equilibrated to 37° C., 5% CO2, compound (2) (1-methyl-6-nitro-4(1H)-quinolinone) was added to a final concentration of 300 μM. Test groups were culture media alone (control), HCT116^WT and HCT116^NTR. The rate of fluorescence signal generation at 355/460 was monitored as a function of time (FIG. 4).

[6] = target: T1, E. coli nitroreductase (nfsB); test: Nitroreductase specificity: fluorescence in MDA231 NTR versus MDA231 WT cells; assay type: cell-based; details: for differential fluorescent signal MDA231 NTR versus MDA231 WT: 95% N2, 355/460, at 7.5 hours
Method: The human breast cancer cell line (MDA231^WT) and a clonal derivative (MDA231^NTR) engineered to overexpress the E. coli nitroreductase (nfsB) under the control of a constitutive promoter were seeded into 96-well plates at a density of 2×10^4 cells/well. When samples were equilibrated to 37° C., 95% N2, 5% CO2 for 2 hr and compound 2 or methyl 7-nitrocoumarin carboxylate (methyl 7-nitro-2-oxo-2H-chromene-3-carboxylate) were added to a final concentration of 300 μM. The fluorescence signal was monitored at 355/460 over a 7.5 hour time frame (FIG. 10).

[7] = target: T3, Escherichia coli nfsB (NfsB) (Escherichia coli, UniProt P38489); test: Multiplexed reporter detection with compounds 4 and 16 in MDA-231 cells expressing nfsB; assay type: cell-based; details: 100 μM, 4 h, platereader, MDA-231 WT/NfsB/CYPOR
T3 construct: expressed in transfected cells; host or cells: MDA231 (MDA-231) human breast cancer cell line, clonal derivative MDA231 NTR
Method: Compounds 4 and 16 (as representative nitro-substituted aromatic compounds of the present invention) were utilized to exemplify the ability to detect individual cell populations. […] 30,000 cells were seeded into a plastic 96-well plate in a volume of 0.1 mL. After 2 h attachment samples were incubated with either 200 μM 16 or 100 μM 4 by dilution of DMSO stock solutions into culture medium and addition of 0.1 mL directly into wells. Plates were incubated for 4 h before being read on a fluorescent platereader at Ex/Em 355/460 and 485/535. Values represent the fluorescence in the presence of cells—blank (fluorescence in the absence of cells). When the data were collated it was evident that the fluorescent output of each cell population could be identified with minimal interference from the other reductases-generated fluorescent molecules. […] To establish the single cell specificity of compounds 4 and 16 for detection of activities in a mixed (co-cultured) cell population, cells were examined by fluorescent microscopy following concurrent exposure to compounds 4 and 16. […] Samples were incubated at 37° C. for 45 minutes, washed three times in PBS and images were acquired on a Nikon TE-2000 inverted fluorescence microscope. […]

[8] = 300 μM, 95% N2, 355/460, 7.5 hour time frame

T1 sequence (P38489 whole entry): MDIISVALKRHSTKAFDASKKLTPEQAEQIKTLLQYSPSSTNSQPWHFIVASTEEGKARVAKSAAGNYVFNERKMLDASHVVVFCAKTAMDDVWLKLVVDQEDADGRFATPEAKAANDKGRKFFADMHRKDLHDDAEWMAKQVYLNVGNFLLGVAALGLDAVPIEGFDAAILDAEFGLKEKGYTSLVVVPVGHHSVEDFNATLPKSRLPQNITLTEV
T2 sequence (P15559 whole entry): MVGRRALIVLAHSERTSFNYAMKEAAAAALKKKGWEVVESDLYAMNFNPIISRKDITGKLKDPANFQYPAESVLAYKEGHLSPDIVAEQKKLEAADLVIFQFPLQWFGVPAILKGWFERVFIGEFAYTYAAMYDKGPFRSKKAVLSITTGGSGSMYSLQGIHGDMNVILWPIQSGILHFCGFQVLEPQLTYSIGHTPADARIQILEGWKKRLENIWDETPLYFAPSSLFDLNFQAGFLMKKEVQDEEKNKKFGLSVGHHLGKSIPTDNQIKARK
T3 sequence (P38489 whole entry): as the sequence (P38489 whole entry) above

With `CN(C)CCCOc1ccnc2cc([N+](=O)[O-])ccc12` (as salt: trifluoroacetate) [Compound 14, N,N-dimethyl-3-[(7-nitro-4-quinolinyl)oxy]-1-propanamine] as the compound, how does the melting point read?
Its melting point is 146 to 149 °C.

For `O=c1c(Cl)c2oc3cc([N+](=O)[O-])ccc3nc-2c2ccccc12` [6-chloro-9-nitro-5H-benzo[a]phenoxazin-5-one], which “fluorescence in cell-free culture media (instability)” value [1] is on record?
The value was “measurable fluorescence; also recorded: lacks stability in culture medium under conditions of low oxygen”.

Which results are given for `O=C(O)c1cc2ccc([N+](=O)[O-])cc2oc1=O` [7-nitrocoumarin-3-carboxylic acid, reference compound]?
fluorescence in cell-free culture media (instability) [1]: measurable fluorescence; increase in background florescence in culture media [2]: 5.3 fold

For `O=c1cc[nH]c2ccc([N+](=O)[O-])cc12` [Compound 1, 6-Nitro-4(1H)-quinolinone], which “retention of fluorescence in cells after wash” value ([3]; HCT116 WT:HCT116 NTR 50:50 co-culture, 100 μM for 1 hr, by 4 hours) is on record?
Its value is “no longer fluorescent”.

And the “fluorescence in wells with compound alone (control) or parental MDA231 WT” value ([4]; 300 μM, 355/460)?
Its value is “No detectable fluorescence”.

What about the “fluorescent signal generation by MDA231 DTD cells as a function of time” value ([4]; 300 μM, 355/460 (FIG. 6)) of the same compound?
The value was “generate a fluorescent signal”.

What about the “fluorescent signal in the presence of human NQO1 expression” value [4] of the same compound?
The value was “gave rise to a fluorescent signal”.

And the “increase in background florescence in culture media” value (“increase in background florescence” below) [2]?
Its value is 1.4 fold.

What about the “aqueous stability compared with methyl-7-nitrocoumarin carboxylate and 7-nitrocoumarin-3-carboxylic acid” value [2] of the same compound?
Its value is “superior aqueous stability”.

With `Cn1ccc(=O)c2cc([N+](=O)[O-])ccc21` [Compound 2, 1-Methyl-6-nitro-4(1H)-quinolinone] as the compound, how does the “time by which reduction by HCT116 NTR cells approached completion” value ([5]; 5×10^6 cells/ml) read?
The value was at most 9 h.

And the “fluorescence in control or parental HCT116 WT cultures” value [5]?
The value was “No detectable fluorescence”.

And the “increase in background florescence” value [2]?
The value was 1.4 fold.

And the “aqueous stability compared with methyl-7-nitrocoumarin carboxylate and 7-nitrocoumarin-3-carboxylic acid” value [2]?
Its value is “superior aqueous stability”.

What about the “fluorescence in control cell line MDA231 WT” value [6, 8] of the same compound?
Its value is “no detectable fluorescence”.

And the “fluorescence in nitroreductase-expressing cell line MDA231 NTR” value [6, 8]?
The value was “robust fluorescent signal”.

And the “differential fluorescent signal MDA231 NTR versus MDA231 WT” value ([6]; 300 μM)?
The value was 480 fold.

And the “performance as nitroreductase fluorescent reporter relative to methyl 7-nitrocoumarin carboxylate” value ([6]; FIG. 10)?
Its value is “superiority”.

Which “fluorescent signal in the presence of human NQO1 expression” value [4] does the source give for `Cc1cc(=O)c2cc([N+](=O)[O-])ccc2[nH]1` [Compound 3, 2-Methyl-6-nitro-4(1H)-quinolinone] here?
Its value is “gave rise to a fluorescent signal; also recorded: generate a fluorescent signal”.

For `CN(C)CCNC(=O)c1cc([N+](=O)[O-])cc2c(=O)c3ccccc3[nH]c12` [Compound 4, N-[2-(Dimethylamino)ethyl]-2-nitro-9-oxo-9,10-dihydro-4-acridinecarboxamide], which “cellular retention of fluorescence in nitroreductase expressing but not parental HCT116 cells” value [3] is on record?
Its value is “possessing cellular retention properties”.

What about the “fluorescent output at Ex/Em 485/535 detecting Escherichia coli nfsB activity” value [7] of the same compound?
Its value is “gave fluorescent output”.

With `COC(=O)CCCNS(=O)(=O)c1cccc2c([N+](=O)[O-])cccc12` [Compound 8, methyl 4-{[(5-nitro-1-naphthyl)sulfonyl]amino}butanoate] as the compound, how does the melting point read?
The melting point was 94 to 96 °C.

For `CN(C)CCCNc1ccnc2cc([N+](=O)[O-])ccc12` [Compound 15, N^1,N^1-Dimethyl-N^3-(7-nitro-4-quinolinyl)-1,3-propanediamine], which “cellular retention of fluorescence in nitroreductase expressing but not parental HCT116 cells” value [3] is on record?
Its value is “possessing cellular retention properties”.

For `Cn1ccc(=O)c2cc(N)ccc21` [Compound 17, 6-Amino-1-methyl-4(1H)-quinolinone], which melting point is on record?
The melting point was 212 to 214 °C.

With `CN(C)CCNC(=O)c1cc(N)cc2c(=O)c3ccccc3[nH]c12` [Compound 18, 2-Amino-N-[2-(dimethylamino)ethyl]-9-oxo-9,10-dihydro-4-acridinecarboxamide] as the compound, how does the melting point read?
Its melting point is 198 to 202 °C.

Which melting point does the source give for `CN(C)CCCCN1C(=O)c2cccc3cc(N)cc(c23)C1=O` [Compound 19, 5-Amino-2-[4-(dimethylamino)butyl]-1H-benzo[de]isoquinoline-1,3(2H)-dione] here?
Its melting point is 99 to 101 °C.

Which melting point does the source give for `COC(=O)CCCNS(=O)(=O)c1ccc2cccc(N)c2c1` [Compound 22, Methyl 4-{[(8-amino-2-naphthyl)sulfonyl]amino}butanoate] here?
Its melting point is 162 to 167 °C.

With `COC(=O)c1cc2ccc([N+](=O)[O-])cc2oc1=O` [methyl 7-nitrocoumarin carboxylate, methyl 7-nitro-2-oxo-2H-chromene-3-carboxylate, reference compound] as the compound, how does the “fluorescence in cell-free culture media (instability)” value [1] read?
Its value is “measurable fluorescence”.

And the “increase in background florescence” value [2]?
The value was 4.2 fold.

And the “fluorescence in control cell line MDA231 WT” value [6, 8]?
Its value is “measurable fluorescence”.

And the “differential fluorescent signal MDA231 NTR versus MDA231 WT” value ([6]; 300 μM)?
The value was 1.6 fold.
